Measured values reported in the NIST ThermoML archive (doi:10.1021/je700598v).

Test: cn = amount concentration of the nth substance listed, in mol/dm3
Details: 101 kPa, Liquid; for viscosity: Capillary tube (Ostwald / Ubbelohde) method; for mass density: Pycnometric method; for binary diffusion coefficient: Taylor dispersion method

OC[C@H]1O[C@@H]2O[C@H]3[C@H](O)[C@@H](O)[C@@H](O[C@H]4[C@H](O)[C@@H](O)[C@@H](O[C@H]5[C@H](O)[C@@H](O)[C@@H](O[C@H]6[C@H](O)[C@@H](O)[C@@H](O[C@H]7[C@H](O)[C@@H](O)[C@@H](O[C@H]8[C@H](O)[C@@H](O)[C@@H](O[C@H]9[C@H](O)[C@@H](O)[C@@H](O[C@H]1[C@H](O)[C@H]2O)O[C@@H]9CO)O[C@@H]8CO)O[C@@H]7CO)O[C@@H]6CO)O[C@@H]5CO)O[C@@H]4CO)O[C@@H]3CO [γ-cyclodextrin] + O
Details | binary diffusion coefficient, 298.15 K [m2/s] | binary diffusion coefficient, 310.15 K [m2/s] | mass density, 298.15 K [kg/m3] | mass density, 310.15 K [kg/m3] | viscosity, 298.15 K [mPa·s] | viscosity, 310.15 K [mPa·s]
c1 = 0.00186 | – | – | 896.2 | 697 | 0.9975 | 0.9938
c1 = 0.002 | 3.57e-10 | 4.8e-10 | – | – | – | –
c1 = 0.004979 | – | – | 906.1 | 708.2 | 0.999 | 0.9949
c1 = 0.005 | 3.55e-10 | 4.7e-10 | – | – | – | –
c1 = 0.007923 | – | – | 919.2 | 717.2 | 1.001 | 0.997
c1 = 0.008 | 3.53e-10 | 4.61e-10 | – | – | – | –
c1 = 0.009981 | – | – | 927 | 723.4 | 1.002 | 0.9984
c1 = 0.01 | 3.52e-10 | 4.53e-10 | – | – | – | –
